According to publication PMC8232621, “Antimicrobial Activity of a Library of Thioxanthones and Their Potential as Efflux Pump Inhibitors” (Pharmaceuticals, 2021):

Tested on: the used strains
Assay: Antibacterial activity (MIC), strains not specified
Format: cell-based
Conditions: concentrations tested; results not shown
Experimental: The minimum inhibitory concentration (MIC) for each compound was determined by broth microdilution method in a 96-well plate according to the Clinical and Laboratory Standard Institute (CLSI) guidelines. The medium used was MHB II. […] DMSO was used in subinhibitory concentrations (1% v/v). The MIC was determined by visual inspection.

Compound: NS(=O)(=O)c1ccc(C(=O)O)cc1 [4-sulfamoylbenzoic acid]
- MIC: did not display an observable MIC
